{
  "source": "paper PMC9132415",
  "about": "“Identification of 1H-pyrazolo[3,4-b]pyridine derivatives as novel and potent TBK1 inhibitors: design, synthesis, biological evaluation, and molecular docking study” (Journal of Enzyme Inhibition and Medicinal Chemistry, 2022)",
  "key": {"[1]": {"biological_target": "ALK (Homo sapiens, UniProt Q9UM73)", "sequence (Q9UM73 19-1620)": "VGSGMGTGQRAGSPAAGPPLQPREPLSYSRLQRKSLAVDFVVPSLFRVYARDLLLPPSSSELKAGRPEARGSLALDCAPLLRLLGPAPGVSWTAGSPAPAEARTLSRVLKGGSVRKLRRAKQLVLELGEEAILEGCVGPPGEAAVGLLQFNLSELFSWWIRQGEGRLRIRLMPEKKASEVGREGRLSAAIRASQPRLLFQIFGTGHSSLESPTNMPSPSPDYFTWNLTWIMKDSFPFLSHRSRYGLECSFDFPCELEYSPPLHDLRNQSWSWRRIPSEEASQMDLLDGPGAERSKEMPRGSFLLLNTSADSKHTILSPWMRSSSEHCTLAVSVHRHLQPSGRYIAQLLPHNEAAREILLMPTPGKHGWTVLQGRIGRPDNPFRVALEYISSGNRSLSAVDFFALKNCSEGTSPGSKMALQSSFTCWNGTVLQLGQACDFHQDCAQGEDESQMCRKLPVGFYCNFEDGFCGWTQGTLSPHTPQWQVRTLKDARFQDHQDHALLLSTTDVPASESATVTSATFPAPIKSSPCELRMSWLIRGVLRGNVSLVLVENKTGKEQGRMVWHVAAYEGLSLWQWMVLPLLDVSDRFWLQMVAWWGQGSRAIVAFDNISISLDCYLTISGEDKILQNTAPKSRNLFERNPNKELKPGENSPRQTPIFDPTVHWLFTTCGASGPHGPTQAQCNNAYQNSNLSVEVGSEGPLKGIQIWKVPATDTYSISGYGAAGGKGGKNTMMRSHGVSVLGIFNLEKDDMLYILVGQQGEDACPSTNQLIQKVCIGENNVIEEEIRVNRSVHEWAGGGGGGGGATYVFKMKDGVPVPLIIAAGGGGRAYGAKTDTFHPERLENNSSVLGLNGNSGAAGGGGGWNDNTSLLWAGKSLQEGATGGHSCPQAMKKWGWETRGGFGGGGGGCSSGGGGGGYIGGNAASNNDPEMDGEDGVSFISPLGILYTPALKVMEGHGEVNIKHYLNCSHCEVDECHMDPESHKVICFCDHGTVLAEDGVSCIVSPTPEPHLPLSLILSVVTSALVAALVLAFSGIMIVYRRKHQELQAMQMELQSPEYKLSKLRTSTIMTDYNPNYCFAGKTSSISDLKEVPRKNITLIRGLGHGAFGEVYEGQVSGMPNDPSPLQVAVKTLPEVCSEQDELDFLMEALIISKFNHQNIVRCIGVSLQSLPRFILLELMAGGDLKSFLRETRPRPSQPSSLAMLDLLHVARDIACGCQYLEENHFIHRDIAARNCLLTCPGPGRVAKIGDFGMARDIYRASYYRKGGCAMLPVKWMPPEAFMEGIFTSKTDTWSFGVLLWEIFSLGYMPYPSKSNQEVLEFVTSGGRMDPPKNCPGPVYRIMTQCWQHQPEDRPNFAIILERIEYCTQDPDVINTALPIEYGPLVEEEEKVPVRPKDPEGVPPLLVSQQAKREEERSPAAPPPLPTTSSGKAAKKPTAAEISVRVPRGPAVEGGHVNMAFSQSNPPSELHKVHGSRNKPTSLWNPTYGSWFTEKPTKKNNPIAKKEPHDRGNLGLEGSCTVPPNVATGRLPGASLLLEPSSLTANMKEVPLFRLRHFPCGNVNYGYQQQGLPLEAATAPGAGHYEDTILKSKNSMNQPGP", "experiment": "Kinase selectivity profile (SelectScreen)", "type": "biochemical", "conditions": "remaining kinase activity at 1.0 μM", "protocol": "(§1) Compound 15y was evaluated for their inhibitory activities against 31 kinases at a single concentration (1 µM). Two different assay platforms were available for profiling—activity and binding. The Z′-LYTE and Adapta kinase activity assays were used most extensively for profiling and a smaller subset of kinases might be profiled using the LanthaScreen Eu Kinase Binding Assays."}, "[2]": {"biological_target": "ASK1 (Homo sapiens, UniProt Q99683)", "sequence (Q99683 whole entry)": "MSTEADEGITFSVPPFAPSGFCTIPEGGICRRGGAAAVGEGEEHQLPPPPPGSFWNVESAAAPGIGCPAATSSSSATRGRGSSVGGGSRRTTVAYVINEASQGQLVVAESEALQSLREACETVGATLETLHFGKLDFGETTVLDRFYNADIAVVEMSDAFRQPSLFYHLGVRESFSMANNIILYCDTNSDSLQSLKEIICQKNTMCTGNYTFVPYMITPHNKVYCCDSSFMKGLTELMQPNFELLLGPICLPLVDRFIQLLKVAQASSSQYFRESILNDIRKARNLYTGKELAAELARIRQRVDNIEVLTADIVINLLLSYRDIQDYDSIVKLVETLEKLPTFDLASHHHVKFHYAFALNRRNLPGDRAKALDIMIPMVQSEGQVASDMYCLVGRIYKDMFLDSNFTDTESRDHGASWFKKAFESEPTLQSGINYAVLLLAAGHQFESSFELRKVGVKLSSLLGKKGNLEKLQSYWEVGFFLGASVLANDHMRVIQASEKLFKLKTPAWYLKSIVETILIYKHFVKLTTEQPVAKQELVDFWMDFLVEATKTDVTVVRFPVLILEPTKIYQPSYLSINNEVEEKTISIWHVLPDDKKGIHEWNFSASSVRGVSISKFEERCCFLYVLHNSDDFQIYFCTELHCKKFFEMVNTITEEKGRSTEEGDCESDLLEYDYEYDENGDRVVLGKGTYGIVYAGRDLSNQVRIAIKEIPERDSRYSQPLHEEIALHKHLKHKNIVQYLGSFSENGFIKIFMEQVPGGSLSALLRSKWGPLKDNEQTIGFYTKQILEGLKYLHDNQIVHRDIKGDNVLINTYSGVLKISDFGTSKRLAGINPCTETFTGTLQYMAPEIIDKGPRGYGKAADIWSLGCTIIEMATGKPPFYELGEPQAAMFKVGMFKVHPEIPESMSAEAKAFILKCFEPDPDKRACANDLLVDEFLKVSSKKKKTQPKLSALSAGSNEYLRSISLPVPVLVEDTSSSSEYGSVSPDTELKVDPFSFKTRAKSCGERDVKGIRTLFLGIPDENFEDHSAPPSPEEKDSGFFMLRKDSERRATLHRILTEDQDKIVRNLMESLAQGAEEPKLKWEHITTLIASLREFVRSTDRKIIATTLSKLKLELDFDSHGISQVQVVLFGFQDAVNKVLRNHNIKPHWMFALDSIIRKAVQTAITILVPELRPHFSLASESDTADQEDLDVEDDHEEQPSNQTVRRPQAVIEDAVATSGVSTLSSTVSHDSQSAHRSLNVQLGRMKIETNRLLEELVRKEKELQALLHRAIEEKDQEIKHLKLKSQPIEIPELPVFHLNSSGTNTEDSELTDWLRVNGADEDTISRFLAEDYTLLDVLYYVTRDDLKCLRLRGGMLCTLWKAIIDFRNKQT", "experiment": "Kinase selectivity profile (SelectScreen)", "type": "biochemical", "conditions": "remaining kinase activity at 1.0 μM", "protocol": "as §1"}, "[3]": {"biological_target": "CK1γ1 (Homo sapiens, UniProt Q9HCP0)", "experiment": "Kinase selectivity profile (SelectScreen)", "type": "biochemical", "conditions": "remaining kinase activity at 1.0 μM", "protocol": "as §1"}, "[4]": {"biological_target": "EGFR (Homo sapiens, UniProt P00533)", "experiment": "Kinase selectivity profile (SelectScreen)", "type": "biochemical", "conditions": "remaining kinase activity at 1.0 μM", "protocol": "as §1"}, "[5]": {"biological_target": "EphB4 (Homo sapiens, UniProt P54760)", "experiment": "Kinase selectivity profile (SelectScreen)", "type": "biochemical", "conditions": "remaining kinase activity at 1.0 μM", "protocol": "as §1"}, "[6]": {"biological_target": "IGF-1R (Homo sapiens, UniProt P08069)", "sequence (P08069 31-1367)": "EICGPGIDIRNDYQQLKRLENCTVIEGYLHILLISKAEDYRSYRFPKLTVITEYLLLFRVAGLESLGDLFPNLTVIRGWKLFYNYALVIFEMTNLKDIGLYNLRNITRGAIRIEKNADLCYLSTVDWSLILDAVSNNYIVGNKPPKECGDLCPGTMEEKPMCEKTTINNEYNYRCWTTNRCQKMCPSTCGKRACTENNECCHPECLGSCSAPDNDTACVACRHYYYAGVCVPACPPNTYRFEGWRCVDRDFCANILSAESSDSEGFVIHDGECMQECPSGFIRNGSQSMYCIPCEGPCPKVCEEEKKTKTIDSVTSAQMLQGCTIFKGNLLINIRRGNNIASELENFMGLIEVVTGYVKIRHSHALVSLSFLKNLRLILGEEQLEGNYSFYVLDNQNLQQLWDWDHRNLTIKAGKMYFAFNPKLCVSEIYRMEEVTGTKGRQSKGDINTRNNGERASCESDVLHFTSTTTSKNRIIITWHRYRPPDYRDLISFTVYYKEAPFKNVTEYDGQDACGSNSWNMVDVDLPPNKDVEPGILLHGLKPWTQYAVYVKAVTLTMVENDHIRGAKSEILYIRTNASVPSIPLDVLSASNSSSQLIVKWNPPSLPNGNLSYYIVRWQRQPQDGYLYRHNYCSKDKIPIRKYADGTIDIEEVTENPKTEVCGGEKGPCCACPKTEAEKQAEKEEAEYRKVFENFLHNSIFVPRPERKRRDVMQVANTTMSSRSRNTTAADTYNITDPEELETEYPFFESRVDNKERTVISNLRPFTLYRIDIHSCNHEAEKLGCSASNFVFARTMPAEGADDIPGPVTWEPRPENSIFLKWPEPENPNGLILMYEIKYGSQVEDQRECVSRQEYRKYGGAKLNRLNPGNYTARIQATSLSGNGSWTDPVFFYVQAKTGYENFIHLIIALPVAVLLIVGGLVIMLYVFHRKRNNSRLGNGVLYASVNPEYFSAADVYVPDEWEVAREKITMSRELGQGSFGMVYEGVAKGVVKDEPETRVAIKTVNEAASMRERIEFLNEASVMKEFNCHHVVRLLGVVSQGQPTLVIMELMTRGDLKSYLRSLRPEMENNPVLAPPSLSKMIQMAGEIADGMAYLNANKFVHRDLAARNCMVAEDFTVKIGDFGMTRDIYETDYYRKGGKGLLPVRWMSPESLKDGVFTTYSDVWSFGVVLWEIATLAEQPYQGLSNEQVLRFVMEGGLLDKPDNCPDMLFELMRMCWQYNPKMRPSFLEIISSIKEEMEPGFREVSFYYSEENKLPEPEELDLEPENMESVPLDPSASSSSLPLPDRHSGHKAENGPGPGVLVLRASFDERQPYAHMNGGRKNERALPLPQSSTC", "experiment": "Kinase selectivity profile (SelectScreen)", "type": "biochemical", "conditions": "remaining kinase activity at 1.0 μM", "protocol": "as §1"}, "[7]": {"biological_target": "IKKβ (Homo sapiens, UniProt O14920)", "sequence (O14920 whole entry)": "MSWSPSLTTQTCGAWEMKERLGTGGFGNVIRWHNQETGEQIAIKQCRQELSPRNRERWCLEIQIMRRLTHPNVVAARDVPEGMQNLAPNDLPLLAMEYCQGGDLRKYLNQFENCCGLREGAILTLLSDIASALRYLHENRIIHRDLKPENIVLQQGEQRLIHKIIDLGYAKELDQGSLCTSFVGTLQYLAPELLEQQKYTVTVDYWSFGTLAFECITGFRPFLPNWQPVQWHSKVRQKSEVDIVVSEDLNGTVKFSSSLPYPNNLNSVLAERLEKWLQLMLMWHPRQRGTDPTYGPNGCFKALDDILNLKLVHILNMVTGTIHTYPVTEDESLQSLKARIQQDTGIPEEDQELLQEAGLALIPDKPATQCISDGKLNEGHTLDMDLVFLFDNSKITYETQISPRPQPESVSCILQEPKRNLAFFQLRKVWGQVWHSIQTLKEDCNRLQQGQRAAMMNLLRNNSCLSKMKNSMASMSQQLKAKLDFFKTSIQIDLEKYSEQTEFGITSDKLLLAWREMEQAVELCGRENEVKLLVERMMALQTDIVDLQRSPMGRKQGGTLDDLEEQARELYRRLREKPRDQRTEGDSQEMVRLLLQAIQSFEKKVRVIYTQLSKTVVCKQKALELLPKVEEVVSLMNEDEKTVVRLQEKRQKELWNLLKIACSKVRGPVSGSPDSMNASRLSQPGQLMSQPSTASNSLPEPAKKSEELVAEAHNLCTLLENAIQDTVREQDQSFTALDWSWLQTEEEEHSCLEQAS", "experiment": "Kinase selectivity profile (SelectScreen)", "type": "biochemical", "conditions": "remaining kinase activity at 1.0 μM", "protocol": "as §1"}, "[8]": {"biological_target": "PDGFRβ (Homo sapiens, UniProt P09619)", "experiment": "Kinase selectivity profile (SelectScreen)", "type": "biochemical", "conditions": "remaining kinase activity at 1.0 μM", "protocol": "as §1"}, "[9]": {"biological_target": "PI3K(p110a/p85a) (Homo sapiens, UniProt P42336)", "experiment": "Kinase selectivity profile (SelectScreen)", "type": "biochemical", "conditions": "remaining kinase activity at 1.0 μM", "protocol": "as §1"}, "[10]": {"biological_target": "PI3K(p120g) (Homo sapiens, UniProt P48736)", "experiment": "Kinase selectivity profile (SelectScreen)", "type": "biochemical", "conditions": "remaining kinase activity at 1.0 μM", "protocol": "as §1"}, "[11]": {"biological_target": "PKBα (Homo sapiens, UniProt P31749)", "experiment": "Kinase selectivity profile (SelectScreen)", "type": "biochemical", "conditions": "remaining kinase activity at 1.0 μM", "protocol": "as §1"}, "[12]": {"biological_target": "PKCα (Homo sapiens, UniProt P17252)", "experiment": "Kinase selectivity profile (SelectScreen)", "type": "biochemical", "conditions": "remaining kinase activity at 1.0 μM", "protocol": "as §1"}, "[13]": {"biological_target": "PLK3 (Homo sapiens, UniProt Q9H4B4)", "experiment": "Kinase selectivity profile (SelectScreen)", "type": "biochemical", "conditions": "remaining kinase activity at 1.0 μM", "protocol": "as §1"}, "[14]": {"biological_target": "PRAK (Homo sapiens, UniProt Q8IW41)", "experiment": "Kinase selectivity profile (SelectScreen)", "type": "biochemical", "conditions": "remaining kinase activity at 1.0 μM", "protocol": "as §1"}, "[15]": {"biological_target": "SRPK1 (Homo sapiens, UniProt Q96SB4)", "experiment": "Kinase selectivity profile (SelectScreen)", "type": "biochemical", "conditions": "remaining kinase activity at 1.0 μM", "protocol": "as §1"}, "[16]": {"system": "ifnb and cxcl10 gene expression in THP-1 cells", "experiment": "mRNA detection of TBK1 downstream genes (RT-PCR), poly(I:C)-stimulated THP-1 cells", "type": "cell-based, human", "conditions": "compound at 1 µM"}, "[17]": {"system": "ifnb and cxcl10 gene expression in RAW264.7 cells", "experiment": "mRNA detection of TBK1 downstream genes (RT-PCR), LPS-stimulated RAW264.7 cells", "type": "cell-based", "conditions": "LPS-stimulated murine RAW264.7 cells"}, "[18]": {"system": "A172 cells", "experiment": "Antiproliferative activity, SRB staining", "type": "cell-based", "conditions": "Homo sapiens, A 172, glioma cell line, 72 h", "protocol": "(§2) A172, U87MG, A375, A2058, and Panc0504 cell lines were obtained from ATCC and cultured in indicated medium according to ATCC’s instructions. Cells were seeded in 96 well-plates at a destiny of around 2000 cells per well one day prior to administrated to increasing doses of indicated compounds. After 72 h of treatment, cells were washed with PBS and were fixed by 10% trichloroacetic acid before stained by sulphorhodamine B (SRB) solution. Unstained SRB were washed away by 1% acetic acid to reduce background signals. A Tris-based solution (10 mM) were used to dissolve stained SRB and the absorbance at 540 nm was measured with SpectraMax Paradigm (Molecular Devices). Inhibition rate was calculated by the relative absorbance value of test compound wells with the average of control wells […]."}, "[19]": {"system": "A2058 cells", "experiment": "Antiproliferative activity, SRB staining", "type": "cell-based", "conditions": "Homo sapiens, melanoma cell line, 72 h", "protocol": "as §2"}, "[20]": {"system": "A375 cells", "experiment": "Antiproliferative activity, SRB staining", "type": "cell-based", "conditions": "Homo sapiens, A-375, melanoma cell line, 72 h", "protocol": "as §2"}, "[21]": {"system": "Panc0504 cells", "experiment": "Antiproliferative activity, SRB staining", "type": "cell-based", "conditions": "Panc 05.04, pancreatic cell line, 72 h", "protocol": "as §2"}, "[22]": {"system": "U87MG cells", "experiment": "Antiproliferative activity, SRB staining", "type": "cell-based", "conditions": "Homo sapiens, U-87 MG, glioma cell line, 72 h", "protocol": "as §2"}, "[23]": {"experiment": "Cytotoxicity to normal cells", "type": "cell-based", "conditions": "human, human umbilical vein endothelial cells (HUVECs)", "description": "Figure S1. The cytotoxicity of compound 15y on Human Umbilical Vein Endothelial Cells\n(HUVECs). Data are representative of 3 independent experiments and are shown in mean ± SD\nvalue. Nolin fit 4-parameters model were used to fit the curve and to calculate IC50 values by\n(1 picture or pasted object on this page, not shown here)"}, "[24]": {"biological_target": "T1, TBK1 (Homo sapiens, UniProt Q9UHD2)", "T1 sequence (Q9UHD2 1-729)": "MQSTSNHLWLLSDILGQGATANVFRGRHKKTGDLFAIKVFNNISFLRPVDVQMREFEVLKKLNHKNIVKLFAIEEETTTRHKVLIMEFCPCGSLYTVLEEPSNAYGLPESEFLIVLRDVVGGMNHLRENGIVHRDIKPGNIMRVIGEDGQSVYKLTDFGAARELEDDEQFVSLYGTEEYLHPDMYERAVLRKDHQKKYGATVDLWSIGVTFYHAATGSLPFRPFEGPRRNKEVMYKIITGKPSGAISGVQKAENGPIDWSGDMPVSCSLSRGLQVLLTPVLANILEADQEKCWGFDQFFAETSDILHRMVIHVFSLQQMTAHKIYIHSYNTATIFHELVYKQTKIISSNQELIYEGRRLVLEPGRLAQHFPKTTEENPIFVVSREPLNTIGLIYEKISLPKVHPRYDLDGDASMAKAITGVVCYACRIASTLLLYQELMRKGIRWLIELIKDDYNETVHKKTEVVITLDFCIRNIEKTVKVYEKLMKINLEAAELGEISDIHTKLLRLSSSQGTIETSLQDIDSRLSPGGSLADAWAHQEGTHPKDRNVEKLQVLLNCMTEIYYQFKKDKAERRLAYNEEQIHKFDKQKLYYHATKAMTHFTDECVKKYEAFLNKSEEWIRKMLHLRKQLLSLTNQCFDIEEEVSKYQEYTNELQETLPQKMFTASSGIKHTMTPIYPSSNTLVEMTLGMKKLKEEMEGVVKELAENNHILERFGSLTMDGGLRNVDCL", "experiment": "FRET-based Z'-LYTE TBK1 enzymatic assay", "type": "biochemical", "design": "purchased Thermo Scientific A31513", "conditions": "100 µM ATP"}},
  "note": "pIC50: −log10 of the molar value.",
  "data": [
    {"molecule": "Cc1nc2c(F)cc(-c3n[nH]c4ncc(-c5cccc(S(N)(=O)=O)c5)cc34)cc2n1C(C)C", "note": "[Compound 15y]", "values": [
      {"measurement": "%kinase activity @ 1.0 μM, ALK", "setting": "[1]", "value": 28, "unit": "%"},
      {"measurement": "%kinase activity @ 1.0 μM, ASK1", "setting": "[2]", "value": 56, "unit": "%"},
      {"measurement": "%kinase activity @ 1.0 μM, CK1γ1", "setting": "[3]", "value": 33, "unit": "%"},
      {"measurement": "%kinase activity @ 1.0 μM, EGFR", "setting": "[4]", "value": 66, "unit": "%"},
      {"measurement": "%kinase activity @ 1.0 μM, EphB4", "setting": "[5]", "value": 77, "unit": "%"},
      {"measurement": "%kinase activity @ 1.0 μM, IGF-1R", "setting": "[6]", "value": 88, "unit": "%"},
      {"measurement": "%kinase activity @ 1.0 μM, IKKβ", "setting": "[7]", "value": 32, "unit": "%"},
      {"measurement": "%kinase activity @ 1.0 μM, PDGFRβ", "setting": "[8]", "value": 21, "unit": "%"},
      {"measurement": "%kinase activity @ 1.0 μM, PI3K(p110a/p85a)", "setting": "[9]", "value": 69, "unit": "%"},
      {"measurement": "%kinase activity @ 1.0 μM, PI3K(p120g)", "setting": "[10]", "value": 32, "unit": "%"},
      {"measurement": "activity at 1 µM", "setting": "[11]", "value": 111, "unit": "%"},
      {"measurement": "%kinase activity @ 1.0 μM, PKCα", "setting": "[12]", "value": 27, "unit": "%"},
      {"measurement": "%kinase activity @ 1.0 μM, PLK3", "setting": "[13]", "value": 101, "unit": "%"},
      {"measurement": "%kinase activity @ 1.0 μM, PRAK", "setting": "[14]", "value": 60, "unit": "%"},
      {"measurement": "%kinase activity @ 1.0 μM, SRPK1", "setting": "[15]", "value": 58, "unit": "%"},
      {"measurement": "inhibition of cxcl10 expression", "setting": "[16]", "value": "> 93", "unit": "%"},
      {"measurement": "inhibition of ifnb expression", "setting": "[16]", "value": "> 93", "unit": "%"},
      {"measurement": "inhibition of ifnb and cxcl10 expression", "setting": "[17]", "value": "profound activity"},
      {"measurement": "pIC50", "setting": "[18]", "value": 5.85},
      {"measurement": "pIC50", "setting": "[19]", "value": 6.05},
      {"measurement": "pIC50", "setting": "[20]", "value": 5.51},
      {"measurement": "pIC50", "setting": "[21]", "value": 5.44},
      {"measurement": "pIC50", "setting": "[22]", "value": 5.62},
      {"measurement": "pIC50", "setting": "[23]", "value": 4.67},
      {"measurement": "inhibition at 0.0001 µM", "setting": "[24]; compound at 0.1 nM, read-out: TBK1 inhibition (%) 0.1 nM", "value": 33.6, "unit": "%"},
      {"measurement": "inhibition at 0.001 µM", "setting": "[24]; compound at 1 nM, read-out: TBK1 inhibition (%) 1 nM", "value": 88.8, "unit": "%"},
      {"measurement": "inhibition at 0.01 µM", "setting": "[24]; compound at 10 nM, read-out: TBK1 inhibition (%) 10 nM", "value": 93.8, "unit": "%"},
      {"measurement": "inhibition at 0.1 µM", "setting": "[24]; compound at 100 nM, read-out: TBK1 inhibition (%) 100 nM", "value": 102, "unit": "%"},
      {"measurement": "inhibition at 1 µM", "setting": "[24]; compound at 1 μM, read-out: TBK1 inhibition (%) 1 μM", "value": 53.9, "unit": "%"},
      {"measurement": "pIC50", "setting": "[24]; mean of two separate experiments", "value": 9.70}
    ]}
  ]
}
